Laboratory results reported in ChEMBL document CHEMBL1201862, “PubChem BioAssay data set” (2004).
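Values below derive from 48-hour exposures of cells grown in 96-well plates, with endpoints linearly interpolated between the two concentrations bracketing the appropriate inhibition level. GI50 is the concentration that inhibits growth by half.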 Calls of active or inactive are those of the source. Rule as the data show it: active = GI50 up to about 1.1 µM and inactive = higher.

Tests used:
Test in all cases: growth of human tumour cells (NCI), 48 h
786-0 = test system: 786-0
A498 = test system: A498
BT-549 = test system: BT-549
EKVX = test system: EKVX
HCC 2998 = test system: HCC 2998
HL-60 = test system: HL-60
K562 = test system: K562
MDA-MB-231 = test system: MDA-MB-231
MDA-N = test system: MDA-N
Malme-3M = test system: Malme-3M
OVCAR-4 = test system: OVCAR-4
OVCAR-5 = test system: OVCAR-5
SF-268 = test system: SF-268
SF-539 = test system: SF-539
SK-MEL-2 = test system: SK-MEL-2
SK-OV-3 = test system: SK-OV-3
SNB-75 = test system: SNB-75
SR = test system: SR
SW-620 = test system: SW-620
U-251 = test system: U-251

SMILES: O=C1NCC(CSc2nc3cc(C4CCCc5c4[nH]c4ccccc54)ccc3o2)N1 (stereo not given)
- GI50 (786-0): 43.3 µM (inactive)
- GI50 (A498): 18 µM (inactive)
- GI50 (BT-549): 47.1 µM (inactive)
- GI50 (EKVX): 25.6 µM (inactive)
- GI50 (HCC 2998): 95.1 µM (inactive)
- GI50 (HL-60): 43.9 µM (inactive)
- GI50 (K562): 31.5 µM (inactive)
- GI50 (MDA-MB-231): 23.1 µM (inactive)
- GI50 (MDA-N): 42.8 µM (inactive)
- GI50 (Malme-3M): 53.7 µM (inactive)
- GI50 (OVCAR-4): 32.2 µM (inactive)
- GI50 (OVCAR-5): 61.8 µM (inactive)
- GI50 (SF-268): 36 µM (inactive)
- GI50 (SF-539): 36.4 µM (inactive)
- GI50 (SK-MEL-2): 39.3 µM (inactive)
- GI50 (SK-OV-3): > 100 µM (inactive)
- GI50 (SNB-75): > 100 µM (inactive)
- GI50 (SR): 14.7 µM (inactive)
- GI50 (SW-620): 39.4 µM (inactive)
- GI50 (U-251): 51.5 µM (inactive)

SMILES: O=S(=O)(O)c1ccc2c(/N=N/c3ccc(S(=O)(=O)O)c4ccccc34)c(O)c(S(=O)(=O)O)cc2c1
- GI50 (786-0): > 100 µM (inactive)
- GI50 (A498): > 100 µM (inactive)
- GI50 (BT-549): > 100 µM (inactive)
- GI50 (EKVX): > 100 µM (inactive)
- GI50 (HCC 2998): > 100 µM (inactive)
- GI50 (HL-60): > 100 µM (inactive)
- GI50 (K562): > 100 µM (inactive)
- GI50 (MDA-MB-231): > 100 µM (inactive)
- GI50 (MDA-N): > 100 µM (inactive)
- GI50 (Malme-3M): > 100 µM (inactive)
- GI50 (OVCAR-4): > 100 µM (inactive)
- GI50 (OVCAR-5): > 100 µM (inactive)
- GI50 (SF-268): > 100 µM (inactive)
- GI50 (SF-539): > 100 µM (inactive)
- GI50 (SK-MEL-2): > 100 µM (inactive)
- GI50 (SK-OV-3): > 100 µM (inactive)
- GI50 (SNB-75): > 100 µM (inactive)
- GI50 (SR): > 100 µM (inactive)
- GI50 (SW-620): > 100 µM (inactive)
- GI50 (U-251): > 100 µM (inactive)

SMILES: Cc1cc2c(cc1C)N1C(Cl)=C3CCCCC3=C(C#N)C1N2 (stereo not given)
- GI50 (786-0): 1.92 µM (inactive)
- GI50 (A498): 19.1 µM (inactive)
- GI50 (BT-549): 2.45 µM (inactive)
- GI50 (EKVX): 16.3 µM (inactive)
- GI50 (HCC 2998): 8.69 µM (inactive)
- GI50 (HL-60): 3.05 µM (inactive)
- GI50 (K562): 3.6 µM (inactive)
- GI50 (MDA-MB-231): 8.75 µM (inactive)
- GI50 (MDA-N): 4.15 µM (inactive)
- GI50 (Malme-3M): 16.8 µM (inactive)
- GI50 (OVCAR-4): 12.3 µM (inactive)
- GI50 (OVCAR-5): 21.1 µM (inactive)
- GI50 (SF-268): 9.25 µM (inactive)
- GI50 (SF-539): 22.4 µM (inactive)
- GI50 (SK-MEL-2): 14.6 µM (inactive)
- GI50 (SK-OV-3): 18.6 µM (inactive)
- GI50 (SNB-75): 23.6 µM (inactive)
- GI50 (SR): 3.65 µM (inactive)
- GI50 (SW-620): 2.02 µM (inactive)
- GI50 (U-251): 9.42 µM (inactive)

SMILES: O=C(O)c1cc(N(Cc2ccccc2O)Cc2cc(O)ccc2O)ccc1O [LAVENDUSTIN A]
- GI50 (786-0): > 100 µM (inactive)
- GI50 (A498): > 100 µM (inactive)
- GI50 (BT-549): 6.21 µM (inactive)
- GI50 (EKVX): > 100 µM (inactive)
- GI50 (HCC 2998): > 100 µM (inactive)
- GI50 (HL-60): > 100 µM (inactive)
- GI50 (K562): > 100 µM (inactive)
- GI50 (MDA-MB-231): > 100 µM (inactive)
- GI50 (MDA-N): > 100 µM (inactive)
- GI50 (Malme-3M): > 100 µM (inactive)
- GI50 (OVCAR-4): > 100 µM (inactive)
- GI50 (OVCAR-5): > 100 µM (inactive)
- GI50 (SF-268): > 100 µM (inactive)
- GI50 (SF-539): > 100 µM (inactive)
- GI50 (SK-MEL-2): > 100 µM (inactive)
- GI50 (SK-OV-3): > 100 µM (inactive)
- GI50 (SNB-75): > 10 µM (inactive)
- GI50 (SR): 82.8 µM (inactive)
- GI50 (SW-620): > 100 µM (inactive)
- GI50 (U-251): > 100 µM (inactive)

SMILES: NC(=O)C(C(N)=O)=C(O)/C(O)=C/C(=O)c1ccccc1
- GI50 (786-0): > 100 µM (inactive)
- GI50 (A498): > 100 µM (inactive)
- GI50 (BT-549): 48.5 µM (inactive)
- GI50 (EKVX): > 100 µM (inactive)
- GI50 (HCC 2998): > 100 µM (inactive)
- GI50 (HL-60): 28.4 µM (inactive)
- GI50 (K562): 0.0652 µM (active)
- GI50 (MDA-MB-231): > 100 µM (inactive)
- GI50 (MDA-N): > 100 µM (inactive)
- GI50 (Malme-3M): 39.9 µM (inactive)
- GI50 (OVCAR-4): > 100 µM (inactive)
- GI50 (OVCAR-5): > 100 µM (inactive)
- GI50 (SF-268): > 100 µM (inactive)
- GI50 (SF-539): > 100 µM (inactive)
- GI50 (SK-MEL-2): > 100 µM (inactive)
- GI50 (SK-OV-3): > 100 µM (inactive)
- GI50 (SNB-75): > 100 µM (inactive)
- GI50 (SR): 1.99 µM (inactive)
- GI50 (SW-620): 81.1 µM (inactive)
- GI50 (U-251): > 100 µM (inactive)

SMILES: O=S(=O)(Nc1ccccc1S(=O)(=O)c1ccccc1)c1ccccc1
- GI50 (786-0): > 100 µM (inactive)
- GI50 (A498): 91.8 µM (inactive)
- GI50 (BT-549): 63.1 µM (inactive)
- GI50 (EKVX): 29.4 µM (inactive)
- GI50 (HCC 2998): 44.6 µM (inactive)
- GI50 (HL-60): 30.8 µM (inactive)
- GI50 (K562): 61.5 µM (inactive)
- GI50 (MDA-MB-231): > 100 µM (inactive)
- GI50 (MDA-N): > 100 µM (inactive)
- GI50 (Malme-3M): 69.5 µM (inactive)
- GI50 (OVCAR-4): 51.3 µM (inactive)
- GI50 (OVCAR-5): > 100 µM (inactive)
- GI50 (SF-268): 91 µM (inactive)
- GI50 (SF-539): > 100 µM (inactive)
- GI50 (SK-MEL-2): 64.3 µM (inactive)
- GI50 (SK-OV-3): > 100 µM (inactive)
- GI50 (SNB-75): > 100 µM (inactive)
- GI50 (SR): > 100 µM (inactive)
- GI50 (SW-620): 92.3 µM (inactive)
- GI50 (U-251): 41.1 µM (inactive)

SMILES: O=C(O)C[S+]([O-])c1ccc2c3c(cccc13)C(=O)c1ccccc1-2 (stereo not given)
- GI50 (786-0): > 100 µM (inactive)
- GI50 (A498): > 100 µM (inactive)
- GI50 (BT-549): > 100 µM (inactive)
- GI50 (EKVX): 55.1 µM (inactive)
- GI50 (HCC 2998): > 100 µM (inactive)
- GI50 (HL-60): > 100 µM (inactive)
- GI50 (K562): > 100 µM (inactive)
- GI50 (MDA-MB-231): > 100 µM (inactive)
- GI50 (MDA-N): > 100 µM (inactive)
- GI50 (Malme-3M): > 100 µM (inactive)
- GI50 (OVCAR-4): > 100 µM (inactive)
- GI50 (OVCAR-5): > 100 µM (inactive)
- GI50 (SF-268): > 100 µM (inactive)
- GI50 (SF-539): > 100 µM (inactive)
- GI50 (SK-MEL-2): > 100 µM (inactive)
- GI50 (SK-OV-3): > 100 µM (inactive)
- GI50 (SNB-75): > 100 µM (inactive)
- GI50 (SR): > 100 µM (inactive)
- GI50 (SW-620): > 100 µM (inactive)
- GI50 (U-251): > 100 µM (inactive)

SMILES: COc1cc2cc(C(=O)N3CC(CCl)c4ccc(NCCN)cc43)[nH]c2c(OC)c1OC (stereo not given)
- GI50 (786-0): 0.228 µM (active)
- GI50 (A498): 0.184 µM (active)
- GI50 (BT-549): 0.345 µM (active)
- GI50 (EKVX): 0.528 µM (active)
- GI50 (HCC 2998): 0.146 µM (active)
- GI50 (HL-60): 0.0319 µM (active)
- GI50 (K562): 0.11 µM (active)
- GI50 (MDA-MB-231): 0.223 µM (active)
- GI50 (MDA-N): 0.176 µM (active)
- GI50 (Malme-3M): 0.172 µM (active)
- GI50 (OVCAR-4): 0.263 µM (active)
- GI50 (OVCAR-5): 0.337 µM (active)
- GI50 (SF-268): 0.242 µM (active)
- GI50 (SF-539): 0.209 µM (active)
- GI50 (SK-MEL-2): 0.179 µM (active)
- GI50 (SK-OV-3): 0.282 µM (active)
- GI50 (SNB-75): 0.232 µM (active)
- GI50 (SR): 0.0279 µM (active)
- GI50 (SW-620): 0.151 µM (active)
- GI50 (U-251): 0.175 µM (active)

SMILES: CCCCCCCCCCCC(=O)N(CCCCCCCCCCC(=O)O)CC(O)C(O)C(OC1OC(CO)C(O)C(O)C1O)C(O)CO (stereo not given)
- GI50 (786-0): > 100 µM (inactive)
- GI50 (A498): > 100 µM (inactive)
- GI50 (BT-549): > 100 µM (inactive)
- GI50 (EKVX): > 100 µM (inactive)
- GI50 (HCC 2998): > 100 µM (inactive)
- GI50 (HL-60): > 100 µM (inactive)
- GI50 (K562): 95.1 µM (inactive)
- GI50 (MDA-MB-231): > 100 µM (inactive)
- GI50 (MDA-N): > 100 µM (inactive)
- GI50 (Malme-3M): > 100 µM (inactive)
- GI50 (OVCAR-4): > 100 µM (inactive)
- GI50 (OVCAR-5): > 100 µM (inactive)
- GI50 (SF-268): > 100 µM (inactive)
- GI50 (SF-539): > 100 µM (inactive)
- GI50 (SK-MEL-2): > 100 µM (inactive)
- GI50 (SK-OV-3): > 100 µM (inactive)
- GI50 (SNB-75): > 100 µM (inactive)
- GI50 (SR): > 100 µM (inactive)
- GI50 (SW-620): > 100 µM (inactive)
- GI50 (U-251): > 100 µM (inactive)

SMILES: COc1ccc2oc(=N)c(C(=O)Nc3cccc4ccccc34)cc2c1
- GI50 (786-0): 11.8 µM (inactive)
- GI50 (A498): 13.2 µM (inactive)
- GI50 (BT-549): 55.7 µM (inactive)
- GI50 (EKVX): 38.1 µM (inactive)
- GI50 (HCC 2998): 58.7 µM (inactive)
- GI50 (HL-60): 23.7 µM (inactive)
- GI50 (K562): 0.526 µM (active)
- GI50 (MDA-MB-231): 26 µM (inactive)
- GI50 (MDA-N): 0.456 µM (active)
- GI50 (Malme-3M): 8.65 µM (inactive)
- GI50 (OVCAR-4): 15.5 µM (inactive)
- GI50 (OVCAR-5): 41.3 µM (inactive)
- GI50 (SF-268): 25.9 µM (inactive)
- GI50 (SF-539): 15.3 µM (inactive)
- GI50 (SK-MEL-2): 18.8 µM (inactive)
- GI50 (SK-OV-3): 15.5 µM (inactive)
- GI50 (SNB-75): 10.2 µM (inactive)
- GI50 (SR): 0.29 µM (active)
- GI50 (SW-620): 7.57 µM (inactive)
- GI50 (U-251): 13 µM (inactive)
